Biological target: T1, SRMS (Srm) (Homo sapiens, UniProt Q9H3Y6)
T1 construct: purchased Thermo Fisher Scientific (Life Technologies) SelectScreen
Assay: SelectScreen Z'LYTE
Type: biochemical
In short: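 SelectScreen broad panel; activity (Z'LYTE, Adapta) plus binding formats. ATP: Km app for CSF1R Z'LYTE; 10 for CAMK1 Adapta. Readout = % per kinase.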

T1 sequence (Q9H3Y6 whole entry): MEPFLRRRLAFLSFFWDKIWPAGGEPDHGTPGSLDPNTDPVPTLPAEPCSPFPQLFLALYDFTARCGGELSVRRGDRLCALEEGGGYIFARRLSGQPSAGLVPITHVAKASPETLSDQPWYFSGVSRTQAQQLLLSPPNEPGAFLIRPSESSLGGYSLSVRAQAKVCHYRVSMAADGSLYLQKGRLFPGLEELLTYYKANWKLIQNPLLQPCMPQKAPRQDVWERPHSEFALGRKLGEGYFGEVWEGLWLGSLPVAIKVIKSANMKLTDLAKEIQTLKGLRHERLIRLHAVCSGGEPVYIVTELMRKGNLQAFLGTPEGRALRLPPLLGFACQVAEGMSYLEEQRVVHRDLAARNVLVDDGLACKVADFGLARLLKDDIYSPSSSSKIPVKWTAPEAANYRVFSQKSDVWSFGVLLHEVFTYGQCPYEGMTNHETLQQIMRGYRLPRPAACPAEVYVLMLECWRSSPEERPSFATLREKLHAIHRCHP

## CN(C(=O)CN1CCOCC1)c1ccc2sc3c(-c4cccc5c(=O)cc(N6CC7CCC(C6)O7)oc45)cccc3c2c1 [NU5455]
  inhibition at 1 µM: 7.5%
